Laboratory results as given in patent publication US20090143452A1, “Use of prochloraz for wood protection” (priority 2005, published 2009).
“Also recorded” adds a separate entry of the source.

Tests used:
[1] = tested on: soft-rot fungi; assay: Activity against soft rot, test based on ENV 807 (reduction in mass of treated Pinus sylvestris wood samples); details: for Activity against soft-rot fungi in the test according to ENV 807 (in words): 0.3% active compound where stated; for Reduction in mass in % (mean): Pinus sylvestris specimens vacuum drenched with 0.3% active compound solution, ageing per EN 84, 20 weeks incubation
Description: The activity of prochloraz and of a copper/chromate preparation and tebuconazole, 3-iodo-2-propynyl butylcarbarbamate (IPBC) and imazalil was determined in a test based on ENV 807 (12/2001). To this end, test specimens of the wood type Pinus sylvestris of a size of 40×15×4 mm were vacuum drenched with 0.3 and 0.4% strength active compound solutions and conditioned for 14 days. This was followed by accelerated ageing according to EN 84.
Subsequently, the wood samples were placed on a malt agar medium according to EN 113 and inoculated with a spore suspension according to ENV 807. After 20 weeks of incubation, the reduction in mass of the wood samples treated was determined.

[2] = tested on: blueing fungi; details: J. A. Drysdale et al., New Zealand Journal of Forestry Science 1982; cited from earlier work

| Compound | Activity against soft-rot fungi in the test according to ENV 807 (in words) [1] | Activity against soft-rot fungi in the test according to ENV 807 (in words) ([1]; listed as prochloraz) | Reduction in mass in % (mean) [1] [%] | Activity against blueing fungi (in words) [2] |
| --- | --- | --- | --- | --- |
| CCCN(CCOc1c(Cl)cc(Cl)cc1Cl)C(=O)n1ccnc1 [Prochloraz, N-propyl-N-[2-(2,4,6-trichlorophenoxy)ethyl]imidazole-1-carboxamide] | broad activity | excellent activity; also recorded: effect comparable to that of the 0.4% strength copper/chromium standard | <2 | insufficiently active |
| C=CCOC(Cn1ccnc1)c1ccc(Cl)cc1Cl (stereo not shown) [Imazalil, imazalil] | entirely insufficient activity; also recorded: insufficiently active | – | >4 | – |
| CC(C)(C)C(O)(CCc1ccc(Cl)cc1)Cn1cncn1 (stereo not shown) [Tebuconazole, tebuconazole] | insufficiently active | – | >4 | – |
| CCCCNC(=O)OCC#CI [IPBC, 3-iodo-2-propynyl butylcarbarbamate] | entirely insufficient activity; also recorded: insufficiently active | – | >4 | – |
